Results from paper PMC6407913, “DREADD Agonist 21 Is an Effective Agonist for Muscarinic-Based DREADDs in Vitro and in Vivo” (ACS Pharmacology & Translational Science, 2018).
pKi: −log10 of the molar value. Values joined by “and” are separate entries in the source; they are usually repeats but may differ in a detail not shown here. Equal entries are not always repeated. Where two headings read alike, the source gives them in different places.

Columns and labels:
Assay in all cases: NIMH PDSP radioligand binding, membranes
[1] = molecular target: T1, 5-HT4 (Homo sapiens, UniProt Q13639)
T1 construct: NIMH PDSP
T1 sequence (Q13639 whole entry, species assumed): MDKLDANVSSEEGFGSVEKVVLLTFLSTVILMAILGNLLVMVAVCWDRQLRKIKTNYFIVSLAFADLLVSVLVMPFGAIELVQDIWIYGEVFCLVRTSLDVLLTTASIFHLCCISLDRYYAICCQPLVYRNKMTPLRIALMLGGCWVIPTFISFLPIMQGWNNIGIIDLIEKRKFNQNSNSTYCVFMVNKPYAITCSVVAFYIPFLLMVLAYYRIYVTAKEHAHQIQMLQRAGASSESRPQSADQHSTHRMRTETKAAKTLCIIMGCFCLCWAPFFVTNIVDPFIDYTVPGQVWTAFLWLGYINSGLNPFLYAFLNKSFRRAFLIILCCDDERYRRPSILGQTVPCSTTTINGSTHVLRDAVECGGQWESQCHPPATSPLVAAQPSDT
Procedure: (§1) Radioligand binding assays with membrane preparations to determine binding affinity were carried out as outlined before[540] and by the National Institute of Mental Health’s Psychoactive Drug Screening Program (NIMH PDSP) (https://pdsp.unc.edu/), Contract # HHSN-271–2013–00017-C. The NIMH PDSP is Directed by B.L.R. at the University of North Carolina at Chapel Hill, Chapel Hill, NC, and Project Officer Jamie Driscoll at NIMH, Bethesda, MD.

[2] = molecular target: DOR (Homo sapiens, UniProt P41143)
Chain of DOR (P41143 whole entry): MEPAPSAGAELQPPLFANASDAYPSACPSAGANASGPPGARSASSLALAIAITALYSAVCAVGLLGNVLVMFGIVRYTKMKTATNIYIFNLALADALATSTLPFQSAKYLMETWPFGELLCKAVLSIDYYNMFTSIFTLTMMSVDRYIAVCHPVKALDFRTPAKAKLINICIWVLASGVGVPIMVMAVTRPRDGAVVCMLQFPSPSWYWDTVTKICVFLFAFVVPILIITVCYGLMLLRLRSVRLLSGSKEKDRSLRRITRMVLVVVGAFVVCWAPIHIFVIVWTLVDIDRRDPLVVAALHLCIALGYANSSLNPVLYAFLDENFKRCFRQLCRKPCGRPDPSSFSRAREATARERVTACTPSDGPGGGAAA
Procedure: as §1

[3] = molecular target: KOR (Homo sapiens, UniProt P41145)
Procedure: as §1

[4] = molecular target: T2, Alpha1D (Homo sapiens, UniProt P25100)
T2 construct: NIMH PDSP
T2 sequence (P25100 1-572): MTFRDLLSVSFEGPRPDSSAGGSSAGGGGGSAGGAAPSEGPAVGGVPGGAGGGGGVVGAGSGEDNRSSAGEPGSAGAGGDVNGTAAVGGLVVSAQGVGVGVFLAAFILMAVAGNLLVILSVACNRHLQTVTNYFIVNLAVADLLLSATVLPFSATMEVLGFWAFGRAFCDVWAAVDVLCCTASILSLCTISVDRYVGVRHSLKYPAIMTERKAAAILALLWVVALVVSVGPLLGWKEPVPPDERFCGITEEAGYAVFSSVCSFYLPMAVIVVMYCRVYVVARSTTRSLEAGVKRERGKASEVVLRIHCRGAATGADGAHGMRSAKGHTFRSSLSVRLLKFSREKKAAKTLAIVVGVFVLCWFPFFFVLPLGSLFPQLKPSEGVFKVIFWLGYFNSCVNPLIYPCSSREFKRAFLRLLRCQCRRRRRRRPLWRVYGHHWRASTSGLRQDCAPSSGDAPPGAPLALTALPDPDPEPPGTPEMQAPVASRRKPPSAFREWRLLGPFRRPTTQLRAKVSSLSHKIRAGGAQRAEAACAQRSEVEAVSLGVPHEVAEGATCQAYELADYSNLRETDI
Procedure: as §1

[5] = molecular target: 5-HT3 (Homo sapiens, UniProt P46098)
Procedure: as §1

[6] = molecular target: D5 (Homo sapiens, UniProt P21918)
Procedure: as §1

[7] = molecular target: 5-HT2B (Homo sapiens, UniProt P41595)
Procedure: as §1

[8] = molecular target: D2 (Homo sapiens, UniProt P14416)
Procedure: as §1

[9] = molecular target: M4 (Homo sapiens, UniProt P08173)
Procedure: as §1

[10] = molecular target: T3, 5-HT7 (Homo sapiens, UniProt P34969)
T3 construct: NIMH PDSP
T3 sequence (P34969 whole entry, species assumed): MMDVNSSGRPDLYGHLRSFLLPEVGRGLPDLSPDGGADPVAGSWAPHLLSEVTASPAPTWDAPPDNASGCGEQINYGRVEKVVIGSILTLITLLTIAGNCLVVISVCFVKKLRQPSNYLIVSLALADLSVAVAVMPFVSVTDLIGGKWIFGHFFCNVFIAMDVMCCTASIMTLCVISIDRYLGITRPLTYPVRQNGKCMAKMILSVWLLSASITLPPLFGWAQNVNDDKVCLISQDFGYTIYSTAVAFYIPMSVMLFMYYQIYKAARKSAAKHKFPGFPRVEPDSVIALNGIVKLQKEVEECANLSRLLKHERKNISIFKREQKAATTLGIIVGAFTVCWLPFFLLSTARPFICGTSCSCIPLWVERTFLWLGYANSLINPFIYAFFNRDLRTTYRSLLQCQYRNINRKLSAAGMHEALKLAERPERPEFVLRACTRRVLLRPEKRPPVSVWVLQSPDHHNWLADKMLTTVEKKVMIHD
Procedure: as §1

[11] = molecular target: CB1 (Homo sapiens, UniProt P21554)
Procedure: as §1

[12] = molecular target: T4, Beta3 (Homo sapiens, UniProt P13945)
T4 construct: NIMH PDSP
Procedure: as §1

[13] = molecular target: M1 (Homo sapiens, UniProt P11229)
Procedure: as §1

[14] = molecular target: T5, Alpha2C (Homo sapiens, UniProt P18825)
T5 construct: NIMH PDSP
T5 sequence (P18825 whole entry): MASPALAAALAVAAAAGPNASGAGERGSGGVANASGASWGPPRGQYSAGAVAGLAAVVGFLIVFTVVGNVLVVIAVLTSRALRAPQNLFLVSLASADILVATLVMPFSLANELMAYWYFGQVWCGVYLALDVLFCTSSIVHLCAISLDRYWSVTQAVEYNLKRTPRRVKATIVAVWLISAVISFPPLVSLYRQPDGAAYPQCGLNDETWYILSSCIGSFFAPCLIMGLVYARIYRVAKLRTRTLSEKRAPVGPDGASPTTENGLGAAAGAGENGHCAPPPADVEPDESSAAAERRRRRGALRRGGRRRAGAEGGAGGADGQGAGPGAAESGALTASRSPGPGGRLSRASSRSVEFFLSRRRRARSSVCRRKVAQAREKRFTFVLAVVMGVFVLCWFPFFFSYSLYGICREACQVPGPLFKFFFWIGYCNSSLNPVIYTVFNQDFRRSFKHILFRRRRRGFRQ
Procedure: as §1

[15] = molecular target: T6, Beta1 (Homo sapiens, UniProt P08588)
T6 construct: NIMH PDSP
Procedure: as §1

[16] = molecular target: M5 (Homo sapiens, UniProt P08912)
Chain of M5 (P08912 whole entry): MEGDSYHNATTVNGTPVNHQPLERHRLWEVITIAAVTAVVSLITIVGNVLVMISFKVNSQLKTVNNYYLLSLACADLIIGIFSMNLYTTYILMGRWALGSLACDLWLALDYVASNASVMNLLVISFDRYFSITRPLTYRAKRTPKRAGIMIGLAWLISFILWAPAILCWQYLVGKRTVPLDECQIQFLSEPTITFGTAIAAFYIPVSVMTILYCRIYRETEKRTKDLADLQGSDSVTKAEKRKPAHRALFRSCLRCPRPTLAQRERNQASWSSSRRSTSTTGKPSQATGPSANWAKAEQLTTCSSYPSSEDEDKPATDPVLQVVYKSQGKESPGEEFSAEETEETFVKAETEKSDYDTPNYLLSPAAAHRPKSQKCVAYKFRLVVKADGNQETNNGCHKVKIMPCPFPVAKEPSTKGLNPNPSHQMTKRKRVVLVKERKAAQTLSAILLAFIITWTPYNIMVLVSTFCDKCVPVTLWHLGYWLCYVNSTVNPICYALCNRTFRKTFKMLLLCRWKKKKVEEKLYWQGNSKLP
Procedure: as §1

[17] = molecular target: H2 (Homo sapiens, UniProt P25021)
Chain of H2 (P25021 whole entry): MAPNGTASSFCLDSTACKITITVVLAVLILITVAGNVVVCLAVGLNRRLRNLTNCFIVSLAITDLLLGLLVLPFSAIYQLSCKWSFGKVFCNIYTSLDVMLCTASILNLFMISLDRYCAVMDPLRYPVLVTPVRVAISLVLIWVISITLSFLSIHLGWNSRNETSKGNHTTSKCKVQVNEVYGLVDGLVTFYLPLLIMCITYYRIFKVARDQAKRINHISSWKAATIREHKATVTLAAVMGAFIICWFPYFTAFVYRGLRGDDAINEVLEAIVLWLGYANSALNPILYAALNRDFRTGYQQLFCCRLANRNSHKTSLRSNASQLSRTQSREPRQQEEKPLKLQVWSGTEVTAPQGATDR
Procedure: as §1

[18] = molecular target: T7, 5-HT1B (Homo sapiens, UniProt P28222)
T7 construct: NIMH PDSP
Procedure: as §1

[19] = molecular target: D1 (Homo sapiens, UniProt P21728)
Procedure: as §1

[20] = molecular target: M3 (Homo sapiens, UniProt P20309)
Chain of M3 (P20309 whole entry): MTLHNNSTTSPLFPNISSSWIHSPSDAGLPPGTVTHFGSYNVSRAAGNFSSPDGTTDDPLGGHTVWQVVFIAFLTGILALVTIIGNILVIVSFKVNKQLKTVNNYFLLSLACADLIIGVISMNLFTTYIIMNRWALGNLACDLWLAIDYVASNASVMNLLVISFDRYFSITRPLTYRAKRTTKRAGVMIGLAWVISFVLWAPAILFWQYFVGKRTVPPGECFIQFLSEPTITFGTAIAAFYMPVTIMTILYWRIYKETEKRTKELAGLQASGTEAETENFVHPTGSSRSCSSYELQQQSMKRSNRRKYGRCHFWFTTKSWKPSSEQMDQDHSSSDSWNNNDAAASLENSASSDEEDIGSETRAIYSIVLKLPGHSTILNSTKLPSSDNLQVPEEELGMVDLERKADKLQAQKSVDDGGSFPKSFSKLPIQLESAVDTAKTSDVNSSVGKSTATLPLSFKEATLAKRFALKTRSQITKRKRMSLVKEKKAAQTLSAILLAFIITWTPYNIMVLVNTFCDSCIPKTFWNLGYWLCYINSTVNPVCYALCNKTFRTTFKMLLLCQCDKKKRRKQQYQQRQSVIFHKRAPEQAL
Procedure: as §1

[21] = molecular target: H4 (Homo sapiens, UniProt Q9H3N8)
Chain of H4 (Q9H3N8 whole entry): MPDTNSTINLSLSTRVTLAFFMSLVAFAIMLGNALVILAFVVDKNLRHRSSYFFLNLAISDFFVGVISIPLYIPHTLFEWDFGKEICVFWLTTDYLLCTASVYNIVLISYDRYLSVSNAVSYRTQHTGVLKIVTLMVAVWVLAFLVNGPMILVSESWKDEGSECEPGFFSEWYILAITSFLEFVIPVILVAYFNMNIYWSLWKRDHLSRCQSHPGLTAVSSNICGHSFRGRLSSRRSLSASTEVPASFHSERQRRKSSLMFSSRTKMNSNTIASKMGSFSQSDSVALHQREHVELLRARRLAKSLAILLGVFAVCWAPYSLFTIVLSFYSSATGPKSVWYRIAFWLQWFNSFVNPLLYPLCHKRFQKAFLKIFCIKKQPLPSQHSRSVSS
Procedure: as §1

[22] = molecular target: H1 (Homo sapiens, UniProt P35367)
Procedure: as §1

[23] = molecular target: T8, 5-HT5A (Homo sapiens, UniProt P47898)
T8 construct: NIMH PDSP
T8 sequence (P47898 whole entry, species assumed): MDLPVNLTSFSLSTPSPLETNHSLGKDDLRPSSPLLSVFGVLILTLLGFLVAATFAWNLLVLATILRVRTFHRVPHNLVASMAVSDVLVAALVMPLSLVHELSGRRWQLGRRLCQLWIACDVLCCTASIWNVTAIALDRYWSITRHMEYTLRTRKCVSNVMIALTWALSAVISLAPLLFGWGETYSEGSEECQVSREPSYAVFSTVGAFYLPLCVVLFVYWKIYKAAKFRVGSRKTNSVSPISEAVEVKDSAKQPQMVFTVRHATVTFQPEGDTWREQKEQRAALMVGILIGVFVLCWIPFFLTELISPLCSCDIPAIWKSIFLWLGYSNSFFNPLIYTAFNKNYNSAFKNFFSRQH
Procedure: as §1

[24] = molecular target: T9, 5-HT1A (Homo sapiens, UniProt P08908)
T9 construct: NIMH PDSP
T9 sequence (P08908 whole entry, species assumed): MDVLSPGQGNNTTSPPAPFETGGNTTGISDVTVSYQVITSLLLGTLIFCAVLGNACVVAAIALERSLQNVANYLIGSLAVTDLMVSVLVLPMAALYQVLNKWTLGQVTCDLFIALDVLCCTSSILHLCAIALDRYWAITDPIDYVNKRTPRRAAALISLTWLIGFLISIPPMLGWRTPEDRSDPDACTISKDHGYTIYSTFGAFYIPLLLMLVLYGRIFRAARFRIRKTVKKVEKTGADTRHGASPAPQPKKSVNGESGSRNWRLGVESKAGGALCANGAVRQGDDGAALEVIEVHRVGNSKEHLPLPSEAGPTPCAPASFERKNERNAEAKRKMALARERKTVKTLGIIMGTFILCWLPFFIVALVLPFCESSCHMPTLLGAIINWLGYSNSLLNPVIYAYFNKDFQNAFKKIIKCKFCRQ
Procedure: as §1

[25] = molecular target: T10, 5-HT6 (Homo sapiens, UniProt P50406)
T10 construct: NIMH PDSP
T10 sequence (P50406 whole entry, species assumed): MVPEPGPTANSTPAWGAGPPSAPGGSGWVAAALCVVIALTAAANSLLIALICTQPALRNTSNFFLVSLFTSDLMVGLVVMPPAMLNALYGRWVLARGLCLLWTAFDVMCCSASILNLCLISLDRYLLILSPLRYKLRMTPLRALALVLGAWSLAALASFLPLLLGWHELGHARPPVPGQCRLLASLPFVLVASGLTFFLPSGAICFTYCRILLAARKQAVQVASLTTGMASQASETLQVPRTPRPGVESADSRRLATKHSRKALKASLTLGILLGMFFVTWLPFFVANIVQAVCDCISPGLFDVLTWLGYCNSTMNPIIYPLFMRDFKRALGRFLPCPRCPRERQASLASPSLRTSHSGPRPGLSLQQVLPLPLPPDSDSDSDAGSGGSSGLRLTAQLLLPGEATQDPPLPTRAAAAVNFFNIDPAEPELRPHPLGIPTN
Procedure: as §1

[26] = molecular target: D4 (Homo sapiens, UniProt P21917)
Procedure: as §1

[27] = read-out: Ki #1-#5 (individual assays)
[28] = read-out: log Ki (individual assays) (converted)
[29] = read-out: pKi (mean) (converted)

Q: Which results are given for `c1ccc2c(c1)N=C(N1CCNCC1)c1ccccc1N2` [C21, 11-(1-piperazinyl)-5H-dibenzo[b,e][1,4]diazepine]?
A: pKi ([1]; read-out: Ki): < 5.00; pKi [1, 27]: < 5.00; pKi ([2]; read-out: Ki): 6.41; pKi [2, 27]: 6.16 and 6.62 and 6.43 and 6.44; pKi ([3]; read-out: Ki): 5.53; pKi [3, 27]: 5.17 and 5.57 and 5.83; log Ki (individual assays) [4]: <5; pKi ([4]; read-out: Ki): < 5.00; pKi [4, 27]: < 5.00; pKi ([5]; read-out: Ki): 6.44; pKi [5, 27]: 6.07 and 6.49 and 6.77; pKi ([6]; read-out: Ki): 5.54; pKi [6, 27]: 5.39 and 5.78 and 5.44; pKi ([7]; read-out: Ki): 7.49; Ki [7, 28]: 26.9 nM and 38 nM and 28.2 nM and 39.8 nM; Ki [7, 29]: 33.1 nM; pKi ([8]; read-out: Ki): 5.34; pKi [8, 27]: 5.56 and 5.32 and 5.13; pKi ([9]; read-out: Ki): 5.73; pKi [9, 27]: 5.81 and 5.61 and 5.52 and 6.13 and 5.55; pKi ([10]; read-out: Ki): 6.97; pKi [10, 27]: 6.98 and 7.11 and 6.82; pKi ([11]; read-out: Ki): < 5.00; pKi [11, 27]: < 5.00; pKi ([12]; read-out: Ki): < 5.00; pKi [12, 27]: < 5.00; pKi ([13]; read-out: Ki): 6.26; pKi [13, 27]: 6.16 and 6.52 and 6.11; pKi ([14]; read-out: Ki): 5.77; pKi [14, 27]: 5.73 and 6.03 and 5.56; pKi ([15]; read-out: Ki): < 5.00; pKi [15, 27]: < 5.00; pKi ([16]; read-out: Ki): 6.38; pKi [16, 27]: 6.76 and 6.40 and 5.97; pKi ([17]; read-out: Ki): 6.54; pKi [17, 27]: 6.59 and 6.29 and 6.74; pKi ([18]; read-out: Ki): 5.44; pKi [18, 27]: 5.34 and 5.64; Ki [18, 28]: 4570 nM; pKi ([19]; read-out: Ki): 6.32; pKi [19, 27]: 6.28 and 6.50 and 6.18; pKi ([20]; read-out: Ki): 6.57; pKi [20, 27]: 6.84 and 6.31 and 6.55; pKi ([21]; read-out: Ki): < 5.00; pKi [21, 27]: < 5.00; Ki [21, 29]: > 10000 nM; pKi [22, 27]: 8.35; Ki [22, 28]: 3.47 nM and 2.4 nM; Ki [22, 29]: 3.39 nM; pKi ([23]; read-out: Ki): 5.72; pKi [23, 27]: 5.48 and 5.85 and 5.69 and 5.84; pKi ([24]; read-out: Ki): 7.09; pKi [24, 27]: 7.19 and 6.84 and 7.24; pKi ([25]; read-out: Ki): 6.57; pKi [25, 27]: 6.38 and 6.71 and 6.63; pKi ([26]; read-out: Ki): 5.69; pKi [26, 27]: 5.86 and 6.05 and 5.39 and 5.45
